From US9034884B2, “Heterocyclic-substituted pyrrolopyridines and pyrrolopyrimidines as JAK inhibitors” (Incyte Corporation, priority 2010, dated 2015)

What was measured:
[1] = target: T1, JAK2 (a.a. 828-1132) catalytic domain (Homo sapiens, UniProt O60674); assay: In vitro JAK kinase assay (HTRF, phosphorylation of biotinylated peptide), JAK2; format: biochemical; conditions: Table A; ATP 1 mM
T1 construct: JAK2 (a.a. 828-1132); His tag (N); made in house; host or cells: insect cells (baculovirus)
T1 sequence (O60674 828-1132): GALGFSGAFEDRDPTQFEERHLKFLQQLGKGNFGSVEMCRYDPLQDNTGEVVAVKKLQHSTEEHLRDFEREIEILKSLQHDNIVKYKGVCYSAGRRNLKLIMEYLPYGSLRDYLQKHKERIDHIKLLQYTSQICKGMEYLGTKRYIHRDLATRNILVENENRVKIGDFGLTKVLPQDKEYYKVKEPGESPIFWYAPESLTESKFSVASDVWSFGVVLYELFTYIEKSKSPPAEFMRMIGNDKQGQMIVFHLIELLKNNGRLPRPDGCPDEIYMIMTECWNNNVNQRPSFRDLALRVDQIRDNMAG
Experimental: Compounds herein were tested for inhibitory activity of JAK targets according to the following in vitro assay described in Park et al., Analytical Biochemistry 1999, 269, 94-104. The catalytic domains of human JAK1 (a.a. 837-1142) and JAK2 (a.a. 828-1132) with an N-terminal His tag were expressed using baculovirus in insect cells and purified. The catalytic activity of JAK1 and JAK2 was assayed by measuring the phosphorylation of a biotinylated peptide. The phosphorylated peptide was detected by homogenous time resolved fluorescence (HTRF). […] For the 1 mM IC50 measurements, ATP concentration in the reactions was 1 mM. Reactions were carried out at room temperature for 1 hour and then stopped with 20 μL 45 mM EDTA, 300 nM SA-APC, 6 nM Eu-Py20 in assay buffer (Perkin Elmer, Boston, Mass.). Binding to the Europium labeled antibody took place for 40 minutes and HTRF signal was measured on a Fusion plate reader (Perkin Elmer, Boston, Mass.). See Tables A and B for data related to compounds of the invention (at 1 mM). Data is indicated as ranges, wherein “+” is less than 5 nM; “++” is 5 nM to 25 nM; “+++” is greater than 25 nM to 100 nM; and “++++” is greater than 100 nM.

[2] = target: T2, human JAK1 (a.a. 837-1142) catalytic domain (Homo sapiens, UniProt P23458); assay: In vitro JAK kinase assay (HTRF, phosphorylation of biotinylated peptide), JAK1; format: biochemical; conditions: Table A; ATP 1 mM
T2 construct: human JAK1 (a.a. 837-1142); His tag (N); made in house; host or cells: insect cells (baculovirus)
T2 sequence (P23458 849-1154): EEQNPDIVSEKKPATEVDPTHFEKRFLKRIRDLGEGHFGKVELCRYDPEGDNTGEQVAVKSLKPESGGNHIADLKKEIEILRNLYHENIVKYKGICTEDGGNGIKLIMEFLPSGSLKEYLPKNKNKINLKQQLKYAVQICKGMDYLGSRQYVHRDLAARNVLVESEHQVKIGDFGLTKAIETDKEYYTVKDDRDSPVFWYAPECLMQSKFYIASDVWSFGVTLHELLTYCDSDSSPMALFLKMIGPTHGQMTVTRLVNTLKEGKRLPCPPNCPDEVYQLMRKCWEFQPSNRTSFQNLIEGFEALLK
Experimental: Compounds herein were tested for inhibitory activity of JAK targets according to the following in vitro assay described in Park et al., Analytical Biochemistry 1999, 269, 94-104. The catalytic domains of human JAK1 (a.a. 837-1142) and JAK2 (a.a. 828-1132) with an N-terminal His tag were expressed using baculovirus in insect cells and purified. The catalytic activity of JAK1 and JAK2 was assayed by measuring the phosphorylation of a biotinylated peptide. The phosphorylated peptide was detected by homogenous time resolved fluorescence (HTRF). […] For the 1 mM IC50 measurements, ATP concentration in the reactions was 1 mM. Reactions were carried out at room temperature for 1 hour and then stopped with 20 μL 45 mM EDTA, 300 nM SA-APC, 6 nM Eu-Py20 in assay buffer (Perkin Elmer, Boston, Mass.). Binding to the Europium labeled antibody took place for 40 minutes and HTRF signal was measured on a Fusion plate reader (Perkin Elmer, Boston, Mass.). […] Data is indicated as ranges, wherein “+” is less than 5 nM; “++” is 5 nM to 25 nM; “+++” is greater than 25 nM to 100 nM; and “++++” is greater than 100 nM.

SMILES | IC50 [1] | IC50 [2]
N#CCC(CN1CCC(Oc2cc(F)cc(C(=O)N3CCOCC3)c2)CC1)n1cc(-c2ncnc3[nH]ccc23)cn1 (stereo not drawn) [Example 18, 4-{4-[3-Fluoro-5-(morpholin-4-ylcarbonyl)phenoxy]piperidin-1-yl}-3-[4-(7H-pyrrolo[2,3-d]pyrimidin-4-yl)-1H-pyrazol-1-yl]butanenitrile] | 5 to 25 nM | < 5 nM
N#CCC(CN1CCC(Oc2cc(F)cc(C(=O)N3CCC(F)(F)C3)c2)CC1)n1cc(-c2ncnc3[nH]ccc23)cn1 (stereo not drawn) [Example 19, 4-(4-{3-[(3,3-Difluoropyrrolidin-1-yl)carbonyl]-5-fluorophenoxy}piperidin-1-yl)-3-[4-(7H-pyrrolo[2,3-d]pyrimidin-4-yl)-1H-pyrazol-1-yl]butanenitrile] | 5 to 25 nM | < 5 nM
CN(Cc1cc(F)cc(OC2CCN(CC(CC#N)n3cc(-c4ncnc5[nH]ccc45)cn3)CC2)c1)C1CC1 (stereo not drawn) [Example 21, 4-[4-(3-{[cyclopropyl(methyl)amino]methyl}-5-fluorophenoxy)piperidin-1-yl]-3-[4-(7H-pyrrolo[2,3-d]pyrimidin-4-yl)-1H-pyrazol-1-yl]butanenitrile] | > 100 nM | < 5 nM
N#CCC(CN1CCC(Oc2cc(F)cc(CN3CCC3)c2)CC1)n1cc(-c2ncnc3[nH]ccc23)cn1 (stereo not drawn) [Example 22] | 25 to 100 nM | < 5 nM
N#CCC(CN1CCC(Oc2cc(F)cc(CNC3CCC3)c2)CC1)n1cc(-c2ncnc3[nH]ccc23)cn1 (stereo not drawn) [Example 23, 4-(4-{3-[(cyclobutylamino)methyl]-5-fluorophenoxy}piperidin-1-yl)-3-[4-(7H-pyrrolo[2,3-d]pyrimidin-4-yl)-1H-pyrazol-1-yl]butanenitrile tetrakis(trifluoroacetate)] | 25 to 100 nM | 5 to 25 nM
N#CCC(CN1CCC(Oc2cc(F)cc(CN3CCCC3)c2)CC1)n1cc(-c2ncnc3[nH]ccc23)cn1 (stereo not drawn) [Example 24, 4-{4-[3-fluoro-5-(pyrrolidin-1-ylmethyl)phenoxy]piperidin-1-yl}-3-[4-(7H-pyrrolo[2,3-d]pyrimidin-4-yl)-1H-pyrazol-1-yl]butanenitrile tetrakis(trifluoroacetate)] | 25 to 100 nM | < 5 nM
N#CCC(CN1CCC(Oc2cc(F)cc(CN3CCCCC3)c2)CC1)n1cc(-c2ncnc3[nH]ccc23)cn1 (stereo not drawn) [Example 25, 4-{4-[3-fluoro-5-(piperidin-1-ylmethyl)phenoxy]piperidin-1-yl}-3-[4-(7H-pyrrolo[2,3-d]pyrimidin-4-yl)-1H-pyrazol-1-yl]butanenitrile] | 5 to 25 nM | < 5 nM
N#CCC(CN1CCC(Oc2cc(F)cc(CN3CCOCC3)c2)CC1)n1cc(-c2ncnc3[nH]ccc23)cn1 (stereo not drawn) [Example 26, 4-{4-[3-fluoro-5-(morpholin-4-ylmethyl)phenoxy]piperidin-1-yl}-3-[4-(7H-pyrrolo[2,3-d]pyrimidin-4-yl)-1H-pyrazol-1-yl]butanenitrile] | > 100 nM | 5 to 25 nM
N#CCC(CN1CCC(Oc2cc(F)cc(CN3CCC(F)(F)C3)c2)CC1)n1cc(-c2ncnc3[nH]ccc23)cn1 (stereo not drawn) [Example 27, 4-(4-{3-[(3,3-difluoropyrrolidin-1-yl)methyl]-5-fluorophenoxy}piperidin-1-yl)-3-[4-(7H-pyrrolo[2,3-d]pyrimidin-4-yl)-1H-pyrazol-1-yl]butanenitrile] | > 100 nM | 5 to 25 nM
C[C@@H]1CCCN1Cc1cc(F)cc(OC2CCN(CC(CC#N)n3cc(-c4ncnc5[nH]ccc45)cn3)CC2)c1 (stereo partly drawn) [Example 28, 4-[4-(3-fluoro-5-{[(2R)-2-methylpyrrolidin-1-yl]methyl}phenoxy)piperidin-1-yl]-3-[4-(7H-pyrrolo[2,3-d]pyrimidin-4-yl)-1H-pyrazol-1-yl]butanenitrile] | 25 to 100 nM | < 5 nM
C[C@H]1CCCN1Cc1cc(F)cc(OC2CCN(CC(CC#N)n3cc(-c4ncnc5[nH]ccc45)cn3)CC2)c1 (stereo partly drawn) [Example 29, 4-[4-(3-fluoro-5-{[(2S)-2-methylpyrrolidin-1-yl]methyl}phenoxy)piperidin-1-yl]-3-[4-(7H-pyrrolo[2,3-d]pyrimidin-4-yl)-1H-pyrazol-1-yl]butanenitrile] | 25 to 100 nM | < 5 nM
COCCNCc1cc(F)cc(OC2CCN(CC(CC#N)n3cc(-c4ncnc5[nH]ccc45)cn3)CC2)c1 (stereo not drawn) [Example 30, 4-[4-(3-fluoro-5-{[(2-methoxyethyl)amino]methyl}phenoxy)piperidin-1-yl]-3-[4-(7H-pyrrolo[2,3-d]pyrimidin-4-yl)-1H-pyrazol-1-yl]butanenitrile] | 25 to 100 nM | 5 to 25 nM
